Source: ChEMBL document CHEMBL1201862, “PubChem BioAssay data set” (2004)
The source made the active and inactive calls.

What was measured:
Coagulation factor XII = Coagulation factor XII (Homo sapiens, UniProt P00748); experiment: Factor XIIa Dose Response Confirmation from Single Well HTS. [Related pubchem assays (depositor defined):AID701]; format: functional
[1] = target: G-protein coupled receptor 35 (Homo sapiens, UniProt Q9HC97); experiment: GPR35 antagonists blocking zaprinast-driven arrestin recruitment, primary screen, imaging, U2OS, beta-arrestin-GFP, zaprinast agonist (AID 2058); format: functional;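 also: antagonist potency meaning inhibition of agonist-induced arrestin redistribution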
Sequence of G-protein coupled receptor 35 (Q9HC97 whole entry): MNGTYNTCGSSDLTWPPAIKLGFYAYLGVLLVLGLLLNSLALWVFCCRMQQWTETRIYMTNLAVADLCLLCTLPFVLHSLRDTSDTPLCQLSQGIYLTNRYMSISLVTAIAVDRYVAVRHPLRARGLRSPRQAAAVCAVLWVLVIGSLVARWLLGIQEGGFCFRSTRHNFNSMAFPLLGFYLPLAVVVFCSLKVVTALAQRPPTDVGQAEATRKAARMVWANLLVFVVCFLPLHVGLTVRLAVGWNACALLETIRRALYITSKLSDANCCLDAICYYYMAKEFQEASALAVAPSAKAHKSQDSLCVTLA

HEK293 [2] = experiment: NOD1 signaling inhibitors, primary screen, cell-based, luminescence, uHTS (AID 1578); format: functional; settings: Homo sapiens
[3] = target: T1, Runt-related transcription factor 1/Core-binding factor subunit beta (Homo sapiens, UniProt Q01196+Q13951); experiment: inhibitors of RUNX1 Runt–CBFb-SMMHC binding, primary screen, biochemical, FRET, Cerulean-Runt, Venus-CBFb-SMMHC, uHTS (AID 1434); format: protein assay;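 also: partner is the CBFb-SMMHC leukemia fusion protein rather than wild-type CBFb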
T1 sequence (Q01196 whole entry, the tested form may be a part): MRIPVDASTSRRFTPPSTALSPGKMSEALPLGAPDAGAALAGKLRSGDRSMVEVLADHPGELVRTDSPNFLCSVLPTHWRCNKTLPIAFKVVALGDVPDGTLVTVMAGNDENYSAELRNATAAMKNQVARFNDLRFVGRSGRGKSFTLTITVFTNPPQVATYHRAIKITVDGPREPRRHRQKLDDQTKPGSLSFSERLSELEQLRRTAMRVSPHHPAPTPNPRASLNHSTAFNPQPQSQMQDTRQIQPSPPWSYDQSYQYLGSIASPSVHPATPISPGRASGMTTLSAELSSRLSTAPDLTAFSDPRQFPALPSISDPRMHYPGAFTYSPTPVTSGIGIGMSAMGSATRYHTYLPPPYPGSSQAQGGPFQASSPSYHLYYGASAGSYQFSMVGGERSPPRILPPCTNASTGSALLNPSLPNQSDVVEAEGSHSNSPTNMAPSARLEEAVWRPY
T1 sequence (Q13951 whole entry, the tested form may be a part): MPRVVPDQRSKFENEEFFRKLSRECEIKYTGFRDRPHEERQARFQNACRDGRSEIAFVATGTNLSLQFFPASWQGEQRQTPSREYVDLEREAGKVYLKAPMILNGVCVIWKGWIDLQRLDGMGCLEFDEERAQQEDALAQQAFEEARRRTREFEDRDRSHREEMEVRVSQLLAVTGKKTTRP

HEK293 [4] = experiment: cells; format: functional, cell-based; settings: Homo sapiens
HEK293 [5] = experiment: cells; format: functional, cell-based; settings: Homo sapiens; remark: listed apart in the source
[6] = target: T1, Runt-related transcription factor 1/Core-binding factor subunit beta; experiment: inhibitors of RUNX1 Runt–CBFb-SMMHC binding, biochemical, TR-FRET (AID 1438); format: protein assay
[7] = target: T2, Nucleotide-binding oligomerization domain-containing protein 2 (Homo sapiens, UniProt Q9HC29); experiment: NOD2 signaling inhibitors, cell-based, luminescence, uHTS, HEK293 (AID 1566); format: functional
T2 sequence (Q9HC29 whole entry, the tested form may be a part): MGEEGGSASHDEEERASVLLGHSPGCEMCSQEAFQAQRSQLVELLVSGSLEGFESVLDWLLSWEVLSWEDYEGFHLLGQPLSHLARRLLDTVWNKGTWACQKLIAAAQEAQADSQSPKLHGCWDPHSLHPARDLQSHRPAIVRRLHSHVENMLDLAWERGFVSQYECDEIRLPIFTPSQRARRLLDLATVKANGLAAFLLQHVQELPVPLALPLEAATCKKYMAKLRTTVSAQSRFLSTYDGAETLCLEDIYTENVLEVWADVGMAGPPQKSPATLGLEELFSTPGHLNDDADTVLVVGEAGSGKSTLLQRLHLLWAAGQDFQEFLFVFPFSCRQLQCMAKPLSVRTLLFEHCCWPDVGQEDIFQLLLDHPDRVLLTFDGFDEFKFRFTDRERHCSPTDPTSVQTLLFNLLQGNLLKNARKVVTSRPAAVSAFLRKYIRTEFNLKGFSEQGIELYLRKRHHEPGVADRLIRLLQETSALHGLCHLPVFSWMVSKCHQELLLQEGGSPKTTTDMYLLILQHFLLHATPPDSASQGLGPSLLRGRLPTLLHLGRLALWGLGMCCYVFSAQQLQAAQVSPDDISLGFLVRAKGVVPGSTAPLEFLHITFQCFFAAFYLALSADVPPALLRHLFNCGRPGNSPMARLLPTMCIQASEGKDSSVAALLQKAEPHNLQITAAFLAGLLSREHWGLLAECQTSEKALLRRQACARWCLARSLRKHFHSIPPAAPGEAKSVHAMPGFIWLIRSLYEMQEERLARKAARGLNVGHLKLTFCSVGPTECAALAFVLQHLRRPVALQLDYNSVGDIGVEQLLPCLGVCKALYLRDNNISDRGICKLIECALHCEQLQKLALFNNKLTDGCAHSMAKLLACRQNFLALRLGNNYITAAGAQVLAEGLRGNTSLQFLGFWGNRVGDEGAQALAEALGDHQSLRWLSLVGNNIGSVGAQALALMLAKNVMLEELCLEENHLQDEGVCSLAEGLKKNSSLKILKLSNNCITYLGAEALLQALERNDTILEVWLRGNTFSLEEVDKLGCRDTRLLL

HEK293 [8] = experiment: NOD2 signaling inhibitors in MDP-stimulated cells, cell-based, uHTS, luminescence (AID 2001); format: functional; settings: Homo sapiens
HEK293 [9] = experiment: cells; format: functional, cell-based; settings: Homo sapiens; remark: listed apart in the source
Tumor necrosis factor = Tumor necrosis factor (Homo sapiens, UniProt P01375); experiment: TNFa-triggered NF-kB activation inhibitors, SAR follow-up, cell-based, revised (AID 2337); format: functional
Sequence of Tumor necrosis factor (P01375 whole entry, the tested form may be a part): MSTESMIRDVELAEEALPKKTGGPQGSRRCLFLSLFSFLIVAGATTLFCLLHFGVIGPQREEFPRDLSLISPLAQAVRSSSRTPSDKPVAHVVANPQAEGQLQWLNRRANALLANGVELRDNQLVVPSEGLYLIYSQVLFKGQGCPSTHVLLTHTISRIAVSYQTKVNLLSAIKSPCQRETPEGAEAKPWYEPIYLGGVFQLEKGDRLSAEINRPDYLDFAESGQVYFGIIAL

[10] = target: T3, Nucleotide-binding oligomerization domain-containing protein 1 (Homo sapiens, UniProt Q9Y239); experiment: NOD1 signaling inhibitors, SAR follow-up, revised (AID 2333); format: functional
T3 sequence (Q9Y239 whole entry): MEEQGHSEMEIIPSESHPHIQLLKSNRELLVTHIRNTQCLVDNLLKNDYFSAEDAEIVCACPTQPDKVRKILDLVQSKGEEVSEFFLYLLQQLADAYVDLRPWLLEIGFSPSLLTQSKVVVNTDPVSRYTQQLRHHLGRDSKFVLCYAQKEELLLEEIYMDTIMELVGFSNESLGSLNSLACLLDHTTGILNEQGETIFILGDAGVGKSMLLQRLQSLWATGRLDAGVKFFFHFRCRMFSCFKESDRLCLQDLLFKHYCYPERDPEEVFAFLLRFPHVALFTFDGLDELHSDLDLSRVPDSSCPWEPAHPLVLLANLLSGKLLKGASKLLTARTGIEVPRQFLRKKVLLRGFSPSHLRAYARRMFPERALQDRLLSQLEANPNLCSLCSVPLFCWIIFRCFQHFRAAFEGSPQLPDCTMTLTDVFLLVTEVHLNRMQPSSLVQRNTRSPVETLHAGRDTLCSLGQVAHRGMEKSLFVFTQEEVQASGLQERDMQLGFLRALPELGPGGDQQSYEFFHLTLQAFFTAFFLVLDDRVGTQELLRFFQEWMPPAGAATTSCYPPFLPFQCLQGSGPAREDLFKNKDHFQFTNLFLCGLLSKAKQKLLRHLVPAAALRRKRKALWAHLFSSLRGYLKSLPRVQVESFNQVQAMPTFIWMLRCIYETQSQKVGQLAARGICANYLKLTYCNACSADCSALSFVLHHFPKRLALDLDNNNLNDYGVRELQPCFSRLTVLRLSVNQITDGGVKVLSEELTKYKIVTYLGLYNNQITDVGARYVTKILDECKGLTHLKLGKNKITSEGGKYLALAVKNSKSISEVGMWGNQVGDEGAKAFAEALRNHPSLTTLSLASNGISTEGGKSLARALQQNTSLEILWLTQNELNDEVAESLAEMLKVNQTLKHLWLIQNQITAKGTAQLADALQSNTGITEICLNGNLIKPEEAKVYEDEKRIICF

Beta-galactosidase = Beta-galactosidase (Escherichia coli, UniProt Q8VNN2); experiment: beta-galactosidase enzyme inhibitors and activators, dose response, artefact control for CCR6 antagonist project, biochemical, E. coli enzyme, set 3 (AID 504712); format: functional
Sequence of Beta-galactosidase (Q8VNN2 whole entry, the tested form may be a part): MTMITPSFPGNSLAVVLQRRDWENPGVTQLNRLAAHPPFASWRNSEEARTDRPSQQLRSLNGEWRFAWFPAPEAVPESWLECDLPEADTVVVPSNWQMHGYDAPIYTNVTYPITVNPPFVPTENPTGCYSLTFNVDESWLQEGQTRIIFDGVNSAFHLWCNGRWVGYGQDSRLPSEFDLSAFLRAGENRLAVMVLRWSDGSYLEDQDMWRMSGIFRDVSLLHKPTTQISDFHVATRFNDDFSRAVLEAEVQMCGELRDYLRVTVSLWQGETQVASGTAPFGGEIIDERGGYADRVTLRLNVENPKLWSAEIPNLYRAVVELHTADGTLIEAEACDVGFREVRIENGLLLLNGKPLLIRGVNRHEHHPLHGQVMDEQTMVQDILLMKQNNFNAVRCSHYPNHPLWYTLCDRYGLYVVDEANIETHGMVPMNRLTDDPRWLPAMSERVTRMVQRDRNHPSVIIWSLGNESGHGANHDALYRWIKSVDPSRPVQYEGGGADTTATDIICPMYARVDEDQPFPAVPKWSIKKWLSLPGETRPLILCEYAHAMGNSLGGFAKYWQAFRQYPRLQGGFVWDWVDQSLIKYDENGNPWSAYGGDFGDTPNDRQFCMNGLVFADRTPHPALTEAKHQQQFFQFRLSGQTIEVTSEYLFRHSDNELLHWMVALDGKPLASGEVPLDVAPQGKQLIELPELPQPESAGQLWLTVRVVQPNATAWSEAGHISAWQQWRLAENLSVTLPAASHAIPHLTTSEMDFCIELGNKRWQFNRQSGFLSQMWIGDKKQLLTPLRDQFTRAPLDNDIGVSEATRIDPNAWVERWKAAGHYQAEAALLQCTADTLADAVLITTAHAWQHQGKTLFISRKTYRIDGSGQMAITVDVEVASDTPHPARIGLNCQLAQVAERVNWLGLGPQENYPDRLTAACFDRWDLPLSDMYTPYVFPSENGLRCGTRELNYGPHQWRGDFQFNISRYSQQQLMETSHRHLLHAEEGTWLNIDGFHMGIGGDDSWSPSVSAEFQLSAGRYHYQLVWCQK

[11] = target: T2, Nucleotide-binding oligomerization domain-containing protein 2; experiment: PubChem AID 2334; format: functional
Hexokinase HKDC1 = target: T4, Hexokinase HKDC1 (Homo sapiens, UniProt Q2TB90); experiment: HKDC1 hexokinase inhibitors, dose response, biochemical, W721R variant (AID 504729); format: functional
T4 sequence (Q2TB90 whole entry): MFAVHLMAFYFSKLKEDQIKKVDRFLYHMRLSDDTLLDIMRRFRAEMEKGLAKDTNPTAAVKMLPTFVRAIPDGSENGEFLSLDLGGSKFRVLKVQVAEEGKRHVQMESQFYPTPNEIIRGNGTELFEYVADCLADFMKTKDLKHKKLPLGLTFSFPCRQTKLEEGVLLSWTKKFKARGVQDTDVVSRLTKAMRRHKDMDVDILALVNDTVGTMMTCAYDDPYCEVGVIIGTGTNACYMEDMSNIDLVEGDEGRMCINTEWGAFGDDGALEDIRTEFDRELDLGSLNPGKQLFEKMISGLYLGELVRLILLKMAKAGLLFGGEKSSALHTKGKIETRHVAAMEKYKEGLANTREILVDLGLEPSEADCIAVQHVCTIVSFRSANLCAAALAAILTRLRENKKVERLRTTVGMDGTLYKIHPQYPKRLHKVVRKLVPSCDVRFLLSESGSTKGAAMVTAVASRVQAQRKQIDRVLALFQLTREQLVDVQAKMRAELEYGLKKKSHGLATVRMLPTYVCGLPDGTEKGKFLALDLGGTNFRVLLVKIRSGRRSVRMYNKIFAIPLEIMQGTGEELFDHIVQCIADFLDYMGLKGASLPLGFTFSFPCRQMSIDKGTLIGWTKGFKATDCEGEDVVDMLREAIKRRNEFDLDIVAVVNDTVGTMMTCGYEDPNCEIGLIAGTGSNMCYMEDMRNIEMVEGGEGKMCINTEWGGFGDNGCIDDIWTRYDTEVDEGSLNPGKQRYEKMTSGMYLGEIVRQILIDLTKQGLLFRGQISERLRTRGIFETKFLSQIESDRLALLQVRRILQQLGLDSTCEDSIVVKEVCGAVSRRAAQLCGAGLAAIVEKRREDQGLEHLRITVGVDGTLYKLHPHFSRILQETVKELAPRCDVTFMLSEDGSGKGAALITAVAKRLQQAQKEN

[12] = target: Heat shock protein HSP 90-alpha (Homo sapiens, UniProt P07900); format: functional, organism-based
[13] = THP-1 cell cytotoxicity, dose response, cytotoxicity control for Vif-APOBEC3G degradation inhibitor project, THP-1 cells (AID 1117359); format: functional; settings: Human immunodeficiency virus 1, THP-1
HEK293 [14] = experiment: cells; settings: Homo sapiens
[15] = inhibitors of firefly luciferase expression or activity, dose response, H4 neuroglioma cells, luminescence (AID 1990); format: functional, cell-based
[16] = Luminescence Cell-Based Dose Response HTS to Identify Inhibitors of 5'UTR Stem-Loop Driven Prion Protein mRNA Translation in H4 Neuroglioblastoma Cells. [Related pubchem assays: 1827 (Project Summary), 1813 (Primary HTS)]; format: functional
[17] = inhibitors of SNCA 5'UTR-driven reporter translation, confirmation, H4 neuroglioma cells, luminescence (AID 1988); format: functional, cell-based
[18] = target: Sphingosine 1-phosphate receptor 4 (Homo sapiens, UniProt O95977); experiment: Late-stage fluorescence dose response cell-based assay to identify agonists of the Sphingosine 1-Phosphate Receptor 4 (S1P4): purchased compounds EC50. [Related pubchem assays (depositor defined):AID1509, AID1523, AID1563, AID1686, AID1701, AID1801]; format: functional
Sequence of Sphingosine 1-phosphate receptor 4 (O95977 whole entry): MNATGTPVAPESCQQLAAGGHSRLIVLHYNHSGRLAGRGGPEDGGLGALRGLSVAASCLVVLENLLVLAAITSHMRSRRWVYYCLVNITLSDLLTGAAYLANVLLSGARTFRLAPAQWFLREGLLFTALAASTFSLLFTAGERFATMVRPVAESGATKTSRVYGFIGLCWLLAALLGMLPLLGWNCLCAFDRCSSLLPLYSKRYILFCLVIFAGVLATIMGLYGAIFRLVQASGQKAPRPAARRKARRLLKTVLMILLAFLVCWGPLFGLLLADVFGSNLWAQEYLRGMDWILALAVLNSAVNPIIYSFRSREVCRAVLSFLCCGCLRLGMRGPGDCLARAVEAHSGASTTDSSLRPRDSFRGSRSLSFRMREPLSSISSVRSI

Trypsin = Trypsin (Sus scrofa, UniProt P00761); experiment: porcine trypsin inhibitors, dose response, selectivity assay for Rce1 protease inhibitor project, biochemical, quenched peptide fluorescence, cherry-pick (AID 488789)
Sequence of Trypsin (P00761 whole entry): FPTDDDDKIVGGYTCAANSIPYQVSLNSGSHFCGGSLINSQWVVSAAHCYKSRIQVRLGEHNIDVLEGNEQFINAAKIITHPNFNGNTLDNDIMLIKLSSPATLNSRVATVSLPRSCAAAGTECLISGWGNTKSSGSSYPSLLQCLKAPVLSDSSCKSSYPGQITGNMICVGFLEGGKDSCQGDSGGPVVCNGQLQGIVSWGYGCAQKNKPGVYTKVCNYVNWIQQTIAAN

CAAX prenyl protease 2 = target: T5, CAAX prenyl protease 2 (Saccharomyces cerevisiae S288c, UniProt Q03530); format: biochemical
T5 sequence (Q03530 whole entry): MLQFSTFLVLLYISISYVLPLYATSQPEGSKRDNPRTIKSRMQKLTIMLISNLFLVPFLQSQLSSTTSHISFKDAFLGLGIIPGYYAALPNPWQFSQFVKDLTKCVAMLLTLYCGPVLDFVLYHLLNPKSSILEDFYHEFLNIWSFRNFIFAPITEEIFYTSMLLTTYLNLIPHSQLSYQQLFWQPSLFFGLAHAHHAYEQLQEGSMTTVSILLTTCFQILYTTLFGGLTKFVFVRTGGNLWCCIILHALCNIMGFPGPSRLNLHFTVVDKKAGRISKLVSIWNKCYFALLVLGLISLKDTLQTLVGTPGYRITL

[19] = target: Type-1 angiotensin II receptor (Homo sapiens, UniProt P30556); experiment: AT1 receptor agonists, dose response, selectivity assay for APJ receptor agonist project, cell-based, uHTS hits (AID 488865); format: functional;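 also: beta-arrestin recruitment to AT1 measured by enzyme fragment complementation luminescence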
Sequence of Type-1 angiotensin II receptor (P30556 whole entry, the tested form may be a part): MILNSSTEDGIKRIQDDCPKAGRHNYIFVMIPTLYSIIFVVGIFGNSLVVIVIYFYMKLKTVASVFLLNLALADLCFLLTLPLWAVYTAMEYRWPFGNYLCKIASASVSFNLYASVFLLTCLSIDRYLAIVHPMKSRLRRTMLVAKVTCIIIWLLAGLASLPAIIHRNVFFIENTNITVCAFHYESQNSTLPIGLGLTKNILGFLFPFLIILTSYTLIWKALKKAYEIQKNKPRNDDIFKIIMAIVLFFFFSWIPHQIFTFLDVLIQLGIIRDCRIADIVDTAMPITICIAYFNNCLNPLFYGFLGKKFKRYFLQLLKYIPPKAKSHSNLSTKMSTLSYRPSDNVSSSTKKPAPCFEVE

[20] = Luminescence Cell-Based Dose Response HTS to Identify Inhibitors of Luciferase Translation or Activity in H4-C Neuroglioblastoma Cells. [Related pubchem assays: 1813 (Primary HTS), 1827 (Project Summary)]; format: functional
[21] = Luminescence Cell-Based Dose Response HTS to Identify Activators of Luciferase Translation or Activity in H4-C Neuroglioblastoma Cells. [Related pubchem assays: 1829 (Project Summary), 1814 (Primary HTS)]; format: functional
[22] = Luminescence Cell-Based Dose Retest to Confirm Activators of 5'UTR Stem-Loop Driven Alpha-Synuclein mRNA Translation in H4 Neuroglioblastoma Cells. [Related pubchem assays (depositor defined):AID1813, AID1829]; format: functional
[23] = Luminescence Cell-Based Dose Response HTS to Identify Activators of 5'UTR Stem-Loop Driven Prion Protein mRNA Translation in H4-C Neuroglioblastoma Cells. [Related pubchem assays: 1829 (Project Summary), 1814 (Primary HTS)]; format: functional
[24] = Luminescence Cell-Based Dose HTS Response to Identify Inhibitors of 5'UTR Stem-Loop Driven Prion Protein mRNA Translation in H4-C Neuroglioblastoma Cells. [Related pubchem assays (depositor defined):AID1814, AID1827]; format: functional
BJ [25] = experiment: cytotoxicity toward BJ-TERT fibroblasts, dose response, cell-based, RAS-independent, luminescence (AID 1933); format: functional; settings: Homo sapiens
BJ [26] = experiment: cells; format: functional, cell-based; settings: Homo sapiens
[27] = Luminescence Cell-Based Dose Confirmation HTS to Identify Inhibitors of 5'UTR Stem-Loop Driven Alpha-Synuclein mRNA Translation in H4 Neuroglioblastoma Cells. [Related pubchem assays: 1827 (Project Summary), 1813 (Primary HTS)]; format: functional
BJ [28] = experiment: cytotoxicity toward BJ-TERT-LT-ST fibroblasts, dose response, cell-based, RAS-independent, luminescence (AID 1935); format: functional; settings: Homo sapiens;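 also: BJ fibroblasts immortalized with TERT plus LT and ST oncogenes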
[29] = cytotoxicity toward DRD oncogenic fibroblasts, dose response, cell-based, non-viral oncogenic, luminescence (AID 1934); format: functional; settings: Homo sapiens

Sequence of Coagulation factor XII (P00748 20-372 limits assumed): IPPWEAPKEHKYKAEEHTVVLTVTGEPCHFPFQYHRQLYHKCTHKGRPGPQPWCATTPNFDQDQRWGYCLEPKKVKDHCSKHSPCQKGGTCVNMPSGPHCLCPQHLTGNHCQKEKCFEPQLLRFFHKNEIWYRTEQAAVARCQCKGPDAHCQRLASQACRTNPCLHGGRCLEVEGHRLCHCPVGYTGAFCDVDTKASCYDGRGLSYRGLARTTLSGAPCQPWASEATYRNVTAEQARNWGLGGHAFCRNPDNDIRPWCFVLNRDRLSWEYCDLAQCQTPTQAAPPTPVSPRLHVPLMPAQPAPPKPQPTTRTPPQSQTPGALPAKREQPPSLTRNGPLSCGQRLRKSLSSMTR
Sequence of Coagulation factor XII (P00748 373-615 limits assumed): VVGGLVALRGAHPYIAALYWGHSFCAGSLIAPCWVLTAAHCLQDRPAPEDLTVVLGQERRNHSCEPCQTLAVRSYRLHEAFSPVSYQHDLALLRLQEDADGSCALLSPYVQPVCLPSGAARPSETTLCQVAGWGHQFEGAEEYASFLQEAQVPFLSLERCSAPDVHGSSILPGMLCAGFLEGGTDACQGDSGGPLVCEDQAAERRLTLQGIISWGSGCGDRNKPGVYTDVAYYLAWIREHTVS

SMILES: COc1cc(OC)c2c(N)c(C#N)c(C(F)(F)C(F)(F)F)nc2c1
- IC50 (Coagulation factor XII): > 50 µM (inactive)

SMILES: CCOC(=O)C1=C(Cc2ccc(Cl)cc2)C(=O)c2ccccc2C1=O
- IC50 [1]: 4.3 µM (active)
- EC50 (HEK293 [2]): 12.2 µM (active)
- IC50 [3]: > 100 µM (inactive)
- IC50 (HEK293 [4]): > 20 µM (inactive)
- IC50 (HEK293 [5]): > 20 µM (inactive)
- IC50 [6]: 43.6 µM (active)
- EC50 [7]: > 20 µM (inactive)
- IC50 (HEK293 [8]): > 20 µM (inactive)
- IC50 (HEK293 [9]): > 20 µM (inactive)
- IC50 (Tumor necrosis factor): 6.24 µM (active)
- IC50 [10]: 5.78 µM (active)
- IC50 (Beta-galactosidase): > 66.6 µM (inactive)
- IC50 [11]: 7.01 µM (active)
- IC50 (Hexokinase HKDC1): 12.2 µM (active)
- AC50 [12]: 27.2 µM (active)
- CC50 [13]: 19.4 µM (active)
- IC50 (HEK293 [14]): > 20 µM (inactive)

SMILES: CCc1ccc(NC(=O)C(C)OC(=O)c2c(C)nn(Cc3ccccc3)c2Cl)cc1 (stereo not drawn)
- EC50 [15]: 16.4 µM (active)
- EC50 [16]: > 120 µM (not active)
- EC50 [17]: > 120 µM (not active)
- EC50 [18]: > 50 µM (inactive)

SMILES: CCC(C)NC(=O)CSC1=Nc2ccccc2C2=NC(CC(=O)NCc3ccc(F)cc3)C(=O)N12 (stereo not drawn)
- AC50 (Trypsin): 16.1 µM (active)
- AC50 (CAAX prenyl protease 2): 15.8 µM (active)
- EC50 [19]: > 100 µM (inactive)

SMILES: COc1ccc2c(c1)C(C)=CC(C)(C)N2S(=O)(=O)c1ccc(NC(C)=O)cc1
- EC50 [20]: 2.91 µM (active)
- EC50 [21]: 2.91 µM (inconclusive)
- EC50 [15]: 14.4 µM (active)
- EC50 [22]: 11.6 µM (inconclusive)
- EC50 [23]: 1.69 µM (inconclusive)
- EC50 [24]: 1.69 µM (active)
- EC50 (BJ [25]): 1.89 µM (inconclusive)
- EC50 [16]: > 60 µM (not active)
- EC50 [17]: 0.514 µM (active)
- EC50 (BJ [26]): 5.92 µM (active)
- EC50 [27]: 11.6 µM (active)
- EC50 (BJ [28]): 7.05 µM (inconclusive)
- EC50 [29]: 1.06 µM (inconclusive)
